Experimental data as given in patent US8569336B2, “Compounds for the treatment of inflammatory disorders” (priority 2008, dated 2013).

Biological target: T1, purified catalytic domain of recombinant human TACE (rhTACEc) (Homo sapiens, UniProt P78536, N452Q/S266A)
T1 construct: 6xHis (C); made in house; host or cells: baculovirus/Hi5 insect cells
Assay: TACE kinetic assay: cleavage of internally quenched peptide substrate TNF-FRET 2 (Ki)
Format: biochemical
Details: Ki, TNF-FRET 2 substrate

T1 sequence (P78536 215-477 S266A/N452Q): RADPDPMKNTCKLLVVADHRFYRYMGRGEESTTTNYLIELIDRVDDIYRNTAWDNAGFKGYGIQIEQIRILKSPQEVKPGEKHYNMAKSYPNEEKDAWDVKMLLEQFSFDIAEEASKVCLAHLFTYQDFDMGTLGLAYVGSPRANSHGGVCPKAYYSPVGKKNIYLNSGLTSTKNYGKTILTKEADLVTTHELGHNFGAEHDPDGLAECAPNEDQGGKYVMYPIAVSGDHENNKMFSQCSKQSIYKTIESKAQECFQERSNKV

SMILES	Ki [µM]
COc1ccc2c(c1F)C(=O)N(C[C@@]1(c3cc4nc(C5=CCNCC5)c(F)cc4o3)NC(=O)NC1=O)C2 [Compound 1320]	0.00037
COc1ccc2c(c1)C(=O)N(C[C@@]1(c3cc4ccc(-c5nnco5)cc4o3)NC(=O)NC1=O)C2 [Compound 2189]	0.000536
COc1ccc2c(c1)C(=O)N(C[C@@]1(c3cn4ccsc4n3)NC(=O)NC1=O)C2 [Compound 502C]	0.00126
COc1ccc2c(c1)C(=O)N(C[C@@]1(c3cc4cc(C(=O)N5CCN(C)CC5)ccc4o3)NC(=O)NC1=O)C2 [Compound 2426]	0.00126
CCOC(=O)N1CCc2oc([C@]3(CN4Cc5ccc(OC)cc5C4=O)NC(=O)NC3=O)cc2C1 [Compound 315]	0.00093

Same assay, conditions: TNF-FRET 2 substrate, read-out: Ki

SMILES	Ki [µM]
COc1ccc2c(c1)C(=O)N(C[C@@]1(c3cc4nc(-c5cccnc5)ccc4o3)NC(=O)NC1=O)C2 [Compound 2107]	0.000902
COc1ccc2c(c1)C(=O)N(C[C@@]1(c3cc4cnc(C)cc4o3)NC(=O)NC1=O)C2 [Compound 2258]	0.000366
COc1ccc2c(c1)C(=O)N(C[C@@]1(c3cc4cc(-c5ccc(O)cc5)ncc4o3)NC(=O)NC1=O)C2 [Compound 2243]	0.000427
CCNC(=O)N1CCc2oc([C@]3(CN4Cc5ccc(OC)cc5C4=O)NC(=O)NC3=O)cc2C1 [Compound 320]	0.0004
COc1ccc2c(c1F)C(=O)N(C[C@@]1(c3cc4nc(N5C[C@H](O)CC5=O)ccc4o3)NC(=O)NC1=O)C2 [Compound 1511]	0.0004
COc1ccc2c(c1)C(=O)N(C[C@@]1(c3cc4cc(C(=O)NCCN(C)C)c(F)cc4o3)NC(=O)NC1=O)C2 [Compound 1273]	0.00059
COc1ccc2c(c1)C(=O)N(C[C@@]1(c3cc4nc(N5CCN(C(C)=O)CC5)ccc4o3)NC(=O)NC1=O)C2 [Compound 2400]	0.000585

Next, values leading:

Ki [µM]	SMILES
0.001	CCN1CCC(c2nc3cc([C@]4(CN5Cc6ccc(OC)c(F)c6C5=O)NC(=O)NC4=O)oc3cc2F)CC1 [Compound 1325]
0.000839	COc1ccc2c(c1)C(=O)N(C[C@@]1(c3cc4cc(NC(=O)N(C)C)ccc4o3)NC(=O)NC1=O)C2 [Compound 2228]
0.00036	COc1ccc2c(c1F)C(=O)N(C[C@@]1(c3cc4nc(-c5ccc(N)nc5)c(F)cc4o3)NC(=O)NC1=O)C2 [Compound 1318]
0.00016	CNS(=O)(=O)c1ccc2oc([C@]3(CN4Cc5ccc(OC)cc5C4=O)NC(=O)NC3=O)cc2c1 [Compound 2481]
0.000538	COc1ccc2c(c1)C(=O)N(C[C@@]1(c3cc4cnc(-c5cccnc5)cc4o3)NC(=O)NC1=O)C2 [Compound 2232]
0.0005	COc1ccc2c(c1F)C(=O)N(C[C@@]1(c3cc4nc(N5CCN(C6CC6)CC5)ccc4o3)NC(=O)NC1=O)C2 [Compound 1711]
0.000711	COc1ccc2c(c1)C(=O)N(C[C@@]1(c3cc4cc(CNCCN(C)C)ccc4o3)NC(=O)NC1=O)C2 [Compound 2177]
0.00045	COc1ccc2c(c1)C(=O)N(C[C@@]1(c3cc4c5c(ccc4o3)C(=O)NC5)NC(=O)NC1=O)C2 [Compound 2504]
0.00048	COc1ccc2c(c1F)C(=O)N(C[C@@]1(c3cc4nc(-c5ccc(N)nc5)ccc4o3)NC(=O)NC1=O)C2 [Compound 1716]
0.00098	COc1ccc2c(c1)C(=O)N(C[C@@]1(c3cc4ccc(C(=O)N5CCNCC5)cc4o3)NC(=O)NC1=O)C2 [Compound 2424]
0.00086	CNC(=O)c1ccc2oc([C@]3(CN4Cc5ccc(OC)cc5C4=O)NC(=O)NC3=O)cc2n1 [Compound 1925]

System: not listed separately
Assay: Area under the curve determinations of plasma levels in rats (rrAUC), oral 10 mg/kg
Format: in vivo
Details: plasma 0.5-6 h

RR AUC (rapid rat AUC, rrAUC) [µM·h]	SMILES
1.07	CNC(=O)c1ccc2oc([C@]3(CN4Cc5ccc(OC)cc5C4=O)NC(=O)NC3=O)cc2n1 [Compound 1925]

Same assay, conditions: rat, plasma 0.5-6 h, read-out: RR AUC (rapid rat AUC, rrAUC)

SMILES	AUC [µM·h]
COc1ccc2c(c1F)C(=O)N(C[C@@]1(c3cc4nc(C5=CCNCC5)c(F)cc4o3)NC(=O)NC1=O)C2 [Compound 1320]	0.101
COc1ccc2c(c1)C(=O)N(C[C@@]1(c3cn4ccsc4n3)NC(=O)NC1=O)C2 [Compound 502C]	2.22
CCNC(=O)N1CCc2oc([C@]3(CN4Cc5ccc(OC)cc5C4=O)NC(=O)NC3=O)cc2C1 [Compound 320]	0.011
COc1ccc2c(c1F)C(=O)N(C[C@@]1(c3cc4nc(N5C[C@H](O)CC5=O)ccc4o3)NC(=O)NC1=O)C2 [Compound 1511]	4.01
CCOC(=O)N1CCc2oc([C@]3(CN4Cc5ccc(OC)cc5C4=O)NC(=O)NC3=O)cc2C1 [Compound 315]	4.03

Further lines, results first:

AUC [µM·h]	SMILES
0.009	CCN1CCC(c2nc3cc([C@]4(CN5Cc6ccc(OC)c(F)c6C5=O)NC(=O)NC4=O)oc3cc2F)CC1 [Compound 1325]
0.863	COc1ccc2c(c1F)C(=O)N(C[C@@]1(c3cc4nc(-c5ccc(N)nc5)c(F)cc4o3)NC(=O)NC1=O)C2 [Compound 1318]
5.09	COc1ccc2c(c1F)C(=O)N(C[C@@]1(c3cc4nc(N5CCN(C6CC6)CC5)ccc4o3)NC(=O)NC1=O)C2 [Compound 1711]
0.393	COc1ccc2c(c1F)C(=O)N(C[C@@]1(c3cc4nc(-c5ccc(N)nc5)ccc4o3)NC(=O)NC1=O)C2 [Compound 1716]

Same assay, conditions: rat, plasma 0.5-6 h post-dosing, read-out: RR AUC (rapid rat AUC, rrAUC)

SMILES	AUC [µM·h]
COc1ccc2c(c1)C(=O)N(C[C@@]1(c3cc4nc(-c5cccnc5)ccc4o3)NC(=O)NC1=O)C2 [Compound 2107]	3.08
COc1ccc2c(c1)C(=O)N(C[C@@]1(c3cc4ccc(-c5nnco5)cc4o3)NC(=O)NC1=O)C2 [Compound 2189]	0.988
COc1ccc2c(c1)C(=O)N(C[C@@]1(c3cc4cnc(C)cc4o3)NC(=O)NC1=O)C2 [Compound 2258]	19.1
COc1ccc2c(c1)C(=O)N(C[C@@]1(c3cc4cc(-c5ccc(O)cc5)ncc4o3)NC(=O)NC1=O)C2 [Compound 2243]	0.027
COc1ccc2c(c1)C(=O)N(C[C@@]1(c3cc4cc(C(=O)NCCN(C)C)c(F)cc4o3)NC(=O)NC1=O)C2 [Compound 1273]	0.037

Continued, values first:

AUC [µM·h]	SMILES
0.129	COc1ccc2c(c1)C(=O)N(C[C@@]1(c3cc4cc(NC(=O)N(C)C)ccc4o3)NC(=O)NC1=O)C2 [Compound 2228]
2.22	COc1ccc2c(c1)C(=O)N(C[C@@]1(c3cc4cnc(-c5cccnc5)cc4o3)NC(=O)NC1=O)C2 [Compound 2232]
0.069	COc1ccc2c(c1)C(=O)N(C[C@@]1(c3cc4cc(CNCCN(C)C)ccc4o3)NC(=O)NC1=O)C2 [Compound 2177]

Same assay, conditions: rat, plasma, blood collected 0.5-6 h post-dosing, read-out: RR AUC (rapid rat AUC, rrAUC)

SMILES	AUC [µM·h]
COc1ccc2c(c1)C(=O)N(C[C@@]1(c3cc4nc(N5CCN(C(C)=O)CC5)ccc4o3)NC(=O)NC1=O)C2 [Compound 2400]	0.439
COc1ccc2c(c1)C(=O)N(C[C@@]1(c3cc4cc(C(=O)N5CCN(C)CC5)ccc4o3)NC(=O)NC1=O)C2 [Compound 2426]	0.057

Other lines, results leading:

AUC [µM·h]	SMILES
0.89	CNS(=O)(=O)c1ccc2oc([C@]3(CN4Cc5ccc(OC)cc5C4=O)NC(=O)NC3=O)cc2c1 [Compound 2481]
0.181	COc1ccc2c(c1)C(=O)N(C[C@@]1(c3cc4c5c(ccc4o3)C(=O)NC5)NC(=O)NC1=O)C2 [Compound 2504]
0.013	COc1ccc2c(c1)C(=O)N(C[C@@]1(c3cc4ccc(C(=O)N5CCNCC5)cc4o3)NC(=O)NC1=O)C2 [Compound 2424]

System: TNF-α production from human whole blood
Assay: Inhibition of TNF-α production from human whole blood (hWBA), LPS stimulated, ELISA
Format: cell-based
Details: Homo sapiens, 3.5 h, human whole blood diluted 1:1, LPS stimulated, 3.5 h, TNF-α by ELISA; read-out: hWBA (IC50)

SMILES	IC50 [µM]
COc1ccc2c(c1)C(=O)N(C[C@@]1(c3cc4nc(-c5cccnc5)ccc4o3)NC(=O)NC1=O)C2 [Compound 2107]	0.171
COc1ccc2c(c1)C(=O)N(C[C@@]1(c3cc4ccc(-c5nnco5)cc4o3)NC(=O)NC1=O)C2 [Compound 2189]	0.672
COc1ccc2c(c1)C(=O)N(C[C@@]1(c3cc4cnc(C)cc4o3)NC(=O)NC1=O)C2 [Compound 2258]	0.345
COc1ccc2c(c1)C(=O)N(C[C@@]1(c3cc4cc(-c5ccc(O)cc5)ncc4o3)NC(=O)NC1=O)C2 [Compound 2243]	0.753
COc1ccc2c(c1)C(=O)N(C[C@@]1(c3cc4cc(C(=O)NCCN(C)C)c(F)cc4o3)NC(=O)NC1=O)C2 [Compound 1273]	0.181

Other lines, results leading:

IC50 [µM]	SMILES
2.37	COc1ccc2c(c1)C(=O)N(C[C@@]1(c3cc4cc(NC(=O)N(C)C)ccc4o3)NC(=O)NC1=O)C2 [Compound 2228]
1.1	COc1ccc2c(c1)C(=O)N(C[C@@]1(c3cc4cnc(-c5cccnc5)cc4o3)NC(=O)NC1=O)C2 [Compound 2232]
0.278	COc1ccc2c(c1)C(=O)N(C[C@@]1(c3cc4cc(CNCCN(C)C)ccc4o3)NC(=O)NC1=O)C2 [Compound 2177]

Same assay, conditions: Homo sapiens, LPS-stimulated human whole blood, TNF-α by ELISA; read-out: hWBA (IC50)

SMILES	IC50 [µM]
COc1ccc2c(c1F)C(=O)N(C[C@@]1(c3cc4nc(C5=CCNCC5)c(F)cc4o3)NC(=O)NC1=O)C2 [Compound 1320]	0.055
COc1ccc2c(c1)C(=O)N(C[C@@]1(c3cn4ccsc4n3)NC(=O)NC1=O)C2 [Compound 502C]	0.538
CCNC(=O)N1CCc2oc([C@]3(CN4Cc5ccc(OC)cc5C4=O)NC(=O)NC3=O)cc2C1 [Compound 320]	0.309
COc1ccc2c(c1F)C(=O)N(C[C@@]1(c3cc4nc(N5C[C@H](O)CC5=O)ccc4o3)NC(=O)NC1=O)C2 [Compound 1511]	0.0934
CCOC(=O)N1CCc2oc([C@]3(CN4Cc5ccc(OC)cc5C4=O)NC(=O)NC3=O)cc2C1 [Compound 315]	0.654

Continued, values first:

IC50 [µM]	SMILES
0.175	CCN1CCC(c2nc3cc([C@]4(CN5Cc6ccc(OC)c(F)c6C5=O)NC(=O)NC4=O)oc3cc2F)CC1 [Compound 1325]
0.087	COc1ccc2c(c1F)C(=O)N(C[C@@]1(c3cc4nc(-c5ccc(N)nc5)c(F)cc4o3)NC(=O)NC1=O)C2 [Compound 1318]
0.113	COc1ccc2c(c1F)C(=O)N(C[C@@]1(c3cc4nc(N5CCN(C6CC6)CC5)ccc4o3)NC(=O)NC1=O)C2 [Compound 1711]
0.132	COc1ccc2c(c1F)C(=O)N(C[C@@]1(c3cc4nc(-c5ccc(N)nc5)ccc4o3)NC(=O)NC1=O)C2 [Compound 1716]
0.28	CNC(=O)c1ccc2oc([C@]3(CN4Cc5ccc(OC)cc5C4=O)NC(=O)NC3=O)cc2n1 [Compound 1925]

Same assay, conditions: Homo sapiens, human whole blood diluted 1:1, LPS stimulated, TNF-α by ELISA; read-out: hWBA (IC50)

SMILES	IC50 [µM]
COc1ccc2c(c1)C(=O)N(C[C@@]1(c3cc4nc(N5CCN(C(C)=O)CC5)ccc4o3)NC(=O)NC1=O)C2 [Compound 2400]	0.28
COc1ccc2c(c1)C(=O)N(C[C@@]1(c3cc4cc(C(=O)N5CCN(C)CC5)ccc4o3)NC(=O)NC1=O)C2 [Compound 2426]	0.85

Second part, the compound after the results:

IC50 [µM]	SMILES
0.31	CNS(=O)(=O)c1ccc2oc([C@]3(CN4Cc5ccc(OC)cc5C4=O)NC(=O)NC3=O)cc2c1 [Compound 2481]
0.189	COc1ccc2c(c1)C(=O)N(C[C@@]1(c3cc4c5c(ccc4o3)C(=O)NC5)NC(=O)NC1=O)C2 [Compound 2504]
0.702	COc1ccc2c(c1)C(=O)N(C[C@@]1(c3cc4ccc(C(=O)N5CCNCC5)cc4o3)NC(=O)NC1=O)C2 [Compound 2424]
